Results published in ChEMBL document CHEMBL2016478, “Lead optimisation of the N1 substituent of a novel series of indazole arylsulfonamides as CCR4 antagonists and identification of a candidate for clinical investigation” (Bioorg Med Chem Lett, 2012).
pIC50, pKi: −log10 of the molar value. In brackets after ≈: the same amount, converted by molar mass.

Assays:
[1] = target: T1, C-C chemokine receptor type 4 (Homo sapiens, UniProt P51679); assay: Antagonist activity at human CCR4 expressed in CHO membranes assessed as inhibition of [35S]-GTPgammaS binding by scintillation counting; format: functional, cell membranes
T1 sequence (P51679 whole entry): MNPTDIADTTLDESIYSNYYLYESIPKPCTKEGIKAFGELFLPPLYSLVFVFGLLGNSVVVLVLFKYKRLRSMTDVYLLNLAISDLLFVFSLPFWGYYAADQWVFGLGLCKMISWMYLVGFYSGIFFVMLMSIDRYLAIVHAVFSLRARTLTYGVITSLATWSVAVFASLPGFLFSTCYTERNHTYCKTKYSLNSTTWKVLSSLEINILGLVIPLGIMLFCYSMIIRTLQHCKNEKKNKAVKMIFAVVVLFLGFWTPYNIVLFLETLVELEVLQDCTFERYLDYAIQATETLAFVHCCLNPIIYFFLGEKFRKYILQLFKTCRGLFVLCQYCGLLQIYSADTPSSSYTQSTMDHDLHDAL

[2] = Solubility of the compound by chemiluminescent nitrogen detection assay; format: physicochemical
[3] = target: T1, C-C chemokine receptor type 4
Description: Displacement of [125I]TARC from human CCR4 expressed in CHO membranes by SPA

[4] = target: T1, C-C chemokine receptor type 4; assay: Antagonist activity at human CCR4 in human whole blood assessed as inhibition of TARC-induced CD4+ CCR4+lymphocyte chemotaxis measuring F-actin content; format: functional, tissue-based; conditions: read-out: pA2 (converted)
[5] = Volume of distribution at steady state in beagle dog at 0.54 mg/kg, iv and 1.1 mg/kg, po; format: ADME, organism-based, Canis lupus familiaris; conditions: in vivo, read-out: Vdss
[6] = Permeability across MDCK cells; format: ADME, cell-based, Canis lupus familiaris; conditions: dog, read-out: permeability
[7] = Volume of distribution at steady state in CD rat at 1 mg/kg, iv and 1 mg/kg, po; format: ADME, organism-based; conditions: in vivo, read-out: Vdss
[8] = Oral bioavailability in CD rat at 1 mg/kg; format: ADME, organism-based; conditions: in vivo
[9] = Oral bioavailability in beagle dog at 1.1 mg/kg; format: ADME, organism-based, Canis lupus familiaris; conditions: in vivo
Canis familiaris = assay: Clearance in beagle dog at […], iv and 1.1 mg/kg, po relative to liver blood flow; format: ADME, organism-based, Canis lupus familiaris; conditions: in vivo
Rattus norvegicus = assay: Clearance in CD rat at 1 mg/kg, iv and 1 mg/kg, po relative to liver blood flow; format: ADME, organism-based; conditions: in vivo
[10] = Clearance in CD rat at 1 mg/kg, iv and 1 mg/kg, po; conditions: in vivo
[11] = Volume of distribution at steady state in beagle dog at […], iv and 1.1 mg/kg, po; format: ADME, organism-based, Canis lupus familiaris; conditions: in vivo, read-out: Vdss
[12] = Clearance in beagle dog at […], iv and 1.1 mg/kg, po; format: ADME, organism-based, Canis lupus familiaris; conditions: in vivo

**Q.** With `COc1cccc2c1c(NS(=O)(=O)c1ccc(Cl)s1)nn2Cc1ccc(CO)cc1` as the compound, how does the pIC50 [1] read?
**A.** The pIC50 was 7.32.

**Q.** What about the solubility [2] of the same compound?
**A.** The solubility was 0.123 mg/mL (≈ 265 µM).

**Q.** And the pKi [3]?
**A.** Its pKi is 7.30.

**Q.** With `COc1cccc2c1c(NS(=O)(=O)c1ccc(Cl)s1)nn2Cc1cccc(CO)c1` as the compound, how does the pIC50 [1] read?
**A.** Its pIC50 is 7.49.

**Q.** What about the solubility [2] of the same compound?
**A.** The solubility was 0.127 mg/mL (≈ 274 µM).

**Q.** And the pKi [3]?
**A.** Its pKi is 7.40.

**Q.** And the Kb [4]?
**A.** The Kb was 6.31 µM.

**Q.** With `COc1cccc2c1c(NS(=O)(=O)c1ccc(Cl)s1)nn2Cc1cccc(C(N)=O)c1` as the compound, how does the pIC50 [1] read?
**A.** The pIC50 was 7.26.

**Q.** And the solubility [2]?
**A.** The solubility was 0.14 mg/mL (≈ 294 µM).

**Q.** What about the pKi [3] of the same compound?
**A.** The pKi was 7.40.

**Q.** What about the Kb [4] of the same compound?
**A.** Its Kb is 1.58 µM.

**Q.** With `COc1ccc(COc2nc(Br)cnc2NS(=O)(=O)c2ccc(C)cc2)cc1OCCN(C)C` as the compound, how does the solubility [2] read?
**A.** Its solubility is 0.17 mg/mL (≈ 308 µM).

**Q.** What does the source list for `COc1cccc2c1c(NS(=O)(=O)c1ccc(Cl)s1)nn2Cc1ccccc1`?
**A.** pIC50 [1]: 6.41; solubility [2]: 0.001 mg/mL (≈ 2.3 µM); pKi [3]: 6.60; Kb [4]: 6.31 µM

**Q.** Which results are given for `COc1ccccc1Cn1nc(NS(=O)(=O)c2ccc(Cl)s2)c2c(OC)cccc21`?
**A.** solubility [2]: 0.012 mg/mL (≈ 25.9 µM); pKi [3]: 6.80

**Q.** With `COc1cccc(Cn2nc(NS(=O)(=O)c3ccc(Cl)s3)c3c(OC)cccc32)c1` as the compound, how does the pIC50 [1] read?
**A.** The pIC50 was 6.80.

**Q.** What about the solubility [2] of the same compound?
**A.** Its solubility is 0.012 mg/mL (≈ 25.9 µM).

**Q.** And the pKi [3]?
**A.** Its pKi is 6.90.

**Q.** For `COc1ccc(Cn2nc(NS(=O)(=O)c3ccc(Cl)s3)c3c(OC)cccc32)cc1`, which solubility [2] is on record?
**A.** The solubility was 0.007 mg/mL (≈ 15.1 µM).

**Q.** What about the pKi [3] of the same compound?
**A.** The pKi was 6.60.

**Q.** With `COc1ccc(Cn2nc(NS(=O)(=O)c3ccc(Cl)s3)c3c(OC)cccc32)cc1OC` as the compound, how does the pIC50 [1] read?
**A.** Its pIC50 is 7.64.

**Q.** What about the solubility [2] of the same compound?
**A.** Its solubility is 0.046 mg/mL (≈ 93.1 µM).

**Q.** And the pKi [3]?
**A.** The pKi was 7.70.

**Q.** What about the Kb [4] of the same compound?
**A.** Its Kb is 2.51 µM.

**Q.** With `COc1cccc2c1c(NS(=O)(=O)c1ccc(Cl)s1)nn2Cc1ccccc1CO` as the compound, how does the pIC50 [1] read?
**A.** The pIC50 was 6.49.

**Q.** What about the solubility [2] of the same compound?
**A.** Its solubility is 0.074 mg/mL (≈ 159 µM).

**Q.** What about the pKi [3] of the same compound?
**A.** Its pKi is 6.60.

**Q.** With `COc1cccc2c1c(NS(=O)(=O)c1ccc(Cl)s1)nn2Cc1cccc(CN)c1` as the compound, how does the pIC50 [1] read?
**A.** The pIC50 was 7.04.

**Q.** What about the solubility [2] of the same compound?
**A.** The solubility was 0.017 mg/mL (≈ 36.7 µM).

**Q.** What about the pKi [3] of the same compound?
**A.** Its pKi is 7.00.

**Q.** What about the Kb [4] of the same compound?
**A.** Its Kb is 1 µM.

**Q.** Which results are given for `CNC(=O)c1cccc(Cn2nc(NS(=O)(=O)c3ccc(Cl)s3)c3c(OC)cccc32)c1`?
**A.** pIC50 [1]: 7.10; solubility [2]: 0.167 mg/mL (≈ 340 µM); pKi [3]: 6.50

**Q.** Which solubility [2] does the source give for `COc1cccc2c1c(NS(=O)(=O)c1ccc(Cl)s1)nn2Cc1cccc(C(=O)N(C)C)c1` here?
**A.** The solubility was 0.16 mg/mL (≈ 317 µM).

**Q.** For `COc1cccc2c1c(NS(=O)(=O)c1ccc(Cl)s1)nn2Cc1cccc(CNC(C)=O)c1`, which Vd [5] is on record?
**A.** The Vd was 3.2 L/kg.

**Q.** What about the Papp [6] of the same compound?
**A.** Its Papp is 254 nm/s.

**Q.** And the solubility [2]?
**A.** Its solubility is 0.124 mg/mL (≈ 246 µM).

**Q.** And the Vd [7]?
**A.** Its Vd is 0.57 L/kg.

**Q.** What about the bioavailability [8] of the same compound?
**A.** Its bioavailability is 100%.

**Q.** And the bioavailability [9]?
**A.** Its bioavailability is 49%.

**Q.** With `COc1cccc2c1c(NS(=O)(=O)c1ccc(Cl)s1)nn2Cc1cccc(CN(C)C(C)=O)c1` as the compound, how does the pIC50 [1] read?
**A.** The pIC50 was 6.89.

**Q.** What about the solubility [2] of the same compound?
**A.** Its solubility is 0.151 mg/mL (≈ 291 µM).

**Q.** Which solubility [2] does the source give for `COc1cccc2c1c(NS(=O)(=O)c1ccc(Cl)s1)nn2Cc1ccc(CNC(C)=O)cc1` here?
**A.** Its solubility is 0.104 mg/mL (≈ 206 µM).

**Q.** What about the pKi [3] of the same compound?
**A.** Its pKi is 6.80.

**Q.** What does the source list for `COc1cccc2c1c(NS(=O)(=O)c1ccc(Cl)s1)nn2Cc1cccc(CNC(=O)CO)c1`?
**A.** pIC50 [1]: 7.56; solubility [2]: 0.167 mg/mL (≈ 321 µM); pKi [3]: 7.80; Kb [4]: 2 µM

**Q.** Which results are given for `COc1cccc2c1c(NS(=O)(=O)c1ccc(Cl)s1)nn2Cc1cccc(CNC(=O)C(C)O)c1` (centres undefined)?
**A.** pIC50 [1]: 7.90; solubility [2]: 0.146 mg/mL (≈ 273 µM); pKi [3]: 8.10; Kb [4]: 0.631 µM

**Q.** What does the source list for `COc1cccc2c1c(NS(=O)(=O)c1ccc(Cl)s1)nn2Cc1cccc(CNC(=O)C(C)(C)O)c1`?
**A.** pIC50 [1]: 7.83; Papp [6]: 132 nm/s; solubility [2]: 0.162 mg/mL (≈ 295 µM); CLH (Canis familiaris): 29%; Vd [7]: 1.9 L/kg; bioavailability [8]: 85%; CLH (Rattus norvegicus): 18%; pKi [3]: 8.00; bioavailability [9]: 97%; Kb [4]: 0.631 µM; clearance [10]: 0.9 L/h/kg; Vd [11]: 2.2 L/kg; clearance [12]: 0.54 L/h/kg
